SMILES strings stand for the structures. Where only a bound is given, the exact number is not on record here.

For the first test, the system named is bacterial strain LF82 binding to the glycoprotein BSA-(Mannose)3. As to the kind of experiment: Bacterial Binding Assay (BBA). The format is cell-based, Escherichia coli. The note with it: read-out: Bacterial Binding Assay IC50. The method in brief: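 Luciferase-tagged E. coli LF82 grown overnight at 37° C without shaking, then added at 2×10^8 bacteria/mL (10^7 per well) to wells coated with 0.5-2 μg/mL BSA-(Man)3 and blocked with 2% BSA. Compound in 0.2% BSA/D-PBS; binding 40-75 min at room temperature. Washed; bound bacteria read by luciferase luminescence; IC50.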
Consider `CC(C)c1cc(-c2ccc(O[C@H]3O[C@H](CO)[C@@H](O)[C@H](O)[C@]3(C)O)c(C(C)C)c2)ccc1O[C@H]1O[C@H](CO)[C@@H](O)[C@H](O)[C@]1(C)O` [Example 115, (2R,3S,4S,5S,6R)-6-(hydroxymethyl)-2-[2-isopropyl-4-[3-isopropyl-4-[(2R,3S,4S,5S,6R)-3,4,5-trihydroxy-6-(hydroxymethyl)-3-methyl-tetrahydropyran-2-yl]oxy-phenyl]phenoxy]-3-methyl-tetrahydropyran-3,4,5-triol], for which the concentration for half-maximal inhibition (IC50) (in general, the concentration at which inhibition is half-maximal) stood at 4 ± 0.6 nM.

Regarding `Cc1cc(-c2ccc(-c3ccc(O[C@H]4O[C@H](CO)[C@@H](O)[C@H](O)[C@]4(C)O)c(C)c3)cc2)ccc1O[C@H]1O[C@H](CO)[C@@H](O)[C@H](O)[C@]1(C)O` [Example 116, (2R,3S,4S,5S,6R)-6-(hydroxymethyl)-3-methyl-2-[2-methyl-4-[4-[3-methyl-4-[(2R,3S,4S,5S,6R)-3,4,5-trihydroxy-6-(hydroxymethyl)-3-methyl-tetrahydropyran-2-yl]oxy-phenyl]phenyl]phenoxy]tetrahydropyran-3,4,5-triol], the IC50 is 30 ± 13 nM.

Consider `Cc1cc(C#Cc2ccc(O[C@H]3O[C@H](CO)[C@@H](O)[C@H](O)[C@]3(C)O)c(C)c2)ccc1O[C@H]1O[C@H](CO)[C@@H](O)[C@H](O)[C@]1(C)O` [Example 117, (2R,3S,4S,5S,6R)-6-(hydroxymethyl)-3-methyl-2-[2-methyl-4-[2-[3-methyl-4-[(2R,3S,4S,5S,6R)-3,4,5-trihydroxy-6-(hydroxymethyl)-3-methyl-tetrahydropyran-2-yl]oxy-phenyl]ethynyl]phenoxy]tetrahydropyran-3,4,5-triol], for which the IC50 stood at 15 ± 8 nM.

Turning to `Cc1cc(-c2cc(-c3ccc(O[C@H]4O[C@H](CO)[C@@H](O)[C@H](O)[C@]4(C)O)c(C)c3)cc(-c3ccc(O[C@H]4O[C@H](CO)[C@@H](O)[C@H](O)[C@]4(C)O)c(C)c3)c2)ccc1O[C@H]1O[C@H](CO)[C@@H](O)[C@H](O)[C@]1(C)O` [Example 118, (2R,3S,4S,5S,6R)-2-[4-[3,5-bis[3-methyl-4-[(2R,3S,4S,5S,6R)-3,4,5-trihydroxy-6-(hydroxymethyl)-3-methyl-tetrahydropyran-2-yl]oxy-phenyl]phenyl]-2-methyl-phenoxy]-6-(hydroxymethyl)-3-methyl-tetrahydropyran-3,4,5-triol], the IC50 was 2 ± 0.7 nM.

Turning to `Cc1cc(-c2cncc(-c3ccc(O[C@H]4O[C@H](CO)[C@@H](O)[C@H](O)[C@]4(C)O)c(C)c3)c2)ccc1O[C@H]1O[C@H](CO)[C@@H](O)[C@H](O)[C@]1(C)O` [Example 119, (2R,3S,4S,5S,6R)-6-(hydroxymethyl)-3-methyl-2-[2-methyl-4-[5-[3-methyl-4-[(2R,3S,4S,5S,6R)-3,4,5-trihydroxy-6-(hydroxymethyl)-3-methyl-tetrahydropyran-2-yl]oxy-phenyl]-3-pyridyl]phenoxy]tetrahydropyran-3,4,5-triol], the half-inhibitory concentration (IC50) came out at 0.6 ± 0.2 nM.

On to `Cc1cc(-c2cccc(-c3ccc(O[C@H]4O[C@H](CO)[C@@H](O)[C@H](O)[C@]4(C)O)c(C)c3)c2)ccc1O[C@H]1O[C@H](CO)[C@@H](O)[C@H](O)[C@]1(C)O` [Example 120, (2R,3S,4S,5S,6R)-6-(hydroxymethyl)-3-methyl-2-[2-methyl-4-[3-[3-methyl-4-[(2R,3S,4S,5S,6R)-3,4,5-trihydroxy-6-(hydroxymethyl)-3-methyl-tetrahydropyran-2-yl]oxy-phenyl]phenyl]phenoxy]tetrahydro-pyran-3,4,5-triol], for which the IC50 is 3 ± 2 nM.

Take `Cc1cc(-c2cccc(-c3ccc(O[C@H]4O[C@H](CO)[C@@H](O)[C@H](O)[C@]4(C)O)c(C)c3)n2)ccc1O[C@H]1O[C@H](CO)[C@@H](O)[C@H](O)[C@]1(C)O` [Example 121, (2R,3S,4S,5S,6R)-6-(hydroxymethyl)-3-methyl-2-[2-methyl-4-[6-[3-methyl-4-[(2R,3S,4S,5S,6R)-3,4,5-trihydroxy-6-(hydroxymethyl)-3-methyl-tetrahydropyran-2-yl]oxy-phenyl]-2-pyridyl]phenoxy]tetrahydropyran-3,4,5-triol]: the IC50 was determined as 6 ± 0.8 nM.

As to `Cc1cc(-c2ccnc(-c3ccc(O[C@H]4O[C@H](CO)[C@@H](O)[C@H](O)[C@]4(C)O)c(C)c3)c2)ccc1O[C@H]1O[C@H](CO)[C@@H](O)[C@H](O)[C@]1(C)O` [Example 122, (2R,3S,4S,5S,6R)-6-(hydroxymethyl)-3-methyl-2-[2-methyl-4-[2-[3-methyl-4-[(2R,3S,4S,5S,6R)-3,4,5-trihydroxy-6-(hydroxymethyl)-3-methyl-tetrahydropyran-2-yl]oxy-phenyl]-4-pyridyl]phenoxy]tetrahydropyran-3,4,5-triol], the IC50 was determined as 0.6 ± 0.3 nM.

With `Cc1cc(C2CC2c2ccc(O[C@H]3O[C@H](CO)[C@@H](O)[C@H](O)[C@]3(C)O)c(C)c2)ccc1O[C@H]1O[C@H](CO)[C@@H](O)[C@H](O)[C@]1(C)O` (stereo partly drawn) [Example 123, (2R,3S,4S,5S,6R)-6-(hydroxymethyl)-3-methyl-2-[2-methyl-4-[2-[3-methyl-4-[(2R,3S,4S,5S,6R)-3,4,5-trihydroxy-6-(hydroxymethyl)-3-methyl-tetrahydropyran-2-yl]oxy-phenyl]cyclopropyl]phenoxy]tetrahydropyran-3,4,5-triol], the IC50 was found to be 1 ± 0.5 nM.

For `OC[C@H]1O[C@@]2(CCc3cc(O)ccc3O2)[C@@H](O)[C@@H](O)[C@@H]1O` [Example 124, (2R,3′S,4′S,5′S,6′R)-6′-(hydroxymethyl)spiro[chromane-2,2′-tetrahydropyran]-3′,4′,5′,6-tetrol], the IC50 turned out to be 650 ± 550 nM.

For the molecule `OC[C@H]1O[C@@]2(CCc3cc(-c4ccc5c(c4)CC[C@]4(O5)O[C@H](CO)[C@@H](O)[C@H](O)[C@@H]4O)ccc3O2)[C@@H](O)[C@@H](O)[C@@H]1O` [Example 126, (2R,3′S,4′S,5′S,6′R)-6′-(hydroxymethyl)-6-[(2R,3′S,4′S,5′S,6′R)-3′,4′,5′-trihydroxy-6′-(hydroxymethyl)spiro[chromane-2,2′-tetrahydropyran]-6-yl]spiro[chromane-2,2′-tetrahydropyran]-3′,4′,5′-triol], the IC50 turned out to be 8 nM.

Regarding `OC[C@H]1O[C@@]2(CCc3cc(-c4cncc(-c5ccc6c(c5)CC[C@]5(O6)O[C@H](CO)[C@@H](O)[C@H](O)[C@@H]5O)c4)ccc3O2)[C@@H](O)[C@@H](O)[C@@H]1O` [Example 129, (2R,3′S,4′S,5′S,6′R)-6′-(hydroxymethyl)-6-[5-[(2R,3′S,4′S,5′S,6′R)-3′,4′,5′-trihydroxy-6′-(hydroxymethyl)spiro[chromane-2,2′-tetrahydropyran]-6-yl]-3-pyridyl]spiro[chromane-2,2′-tetrahydropyran]-3′,4′,5′-triol], the IC50 is 11 ± 6 nM.

`CNC(=O)c1cccc(-c2ccc(O[C@H]3O[C@H](CO)[C@@H](O)[C@](C)(O)[C@@H]3O)c(C)c2)c1` [compound 25]: the IC50 was determined as 68 ± 18 nM.

Consider `CNC(=O)c1cccc(-c2ccc(O[C@H]3O[C@](C)(CO)[C@@H](O)[C@H](O)[C@@H]3O)c(C)c2)c1` [compound 26], for which the IC50 came out at 2370 ± 544 nM.

On to `CNC(=O)c1cccc(-c2ccc(O[C@H]3O[C@H]([C@H](C)O)[C@@H](O)[C@H](O)[C@@H]3O)c(C)c2)c1` [compound 27], for which the IC50 amounted to 165 ± 49 nM.

Consider `C[C@H](O)[C@H]1O[C@H](Oc2ccc(N3CCc4cc([N+](=O)[O-])ccc43)cc2Cl)[C@@H](O)[C@@H](O)[C@@H]1O` [compound 28], for which the 50% inhibitory concentration (IC50) was 1300 nM.

For the molecule `CNC(=O)c1cccc(-c2ccc(O[C@H]3O[C@H]([C@@H](C)O)[C@@H](O)[C@H](O)[C@@H]3O)c(C)c2)c1` [compound 29], the IC50 is > 10000 nM.

As for `COc1ccc2c(c1)CC[C@]1(O2)O[C@H](CO)[C@@H](O)[C@H](O)[C@@H]1O` [compound 32], the IC50 amounted to 333 ± 100 nM.

`CNC(=O)c1cccc(-c2ccc3c(c2)CC[C@]2(O3)O[C@H](CO)[C@@H](O)[C@H](O)[C@@H]2O)c1` [compound 33]: the IC50 amounted to 27 ± 8 nM.

Regarding `CNC(=O)c1ccc(CCO[C@@]2(C)O[C@H](CO)[C@@H](O)[C@H](O)[C@@H]2O)cc1` [compound 35], the IC50 stood at 1800 ± 300 nM.

For a further test, the target named is T1, carbohydrate recognition domain of the protein FimH (M1-T179) (Escherichia coli, UniProt P08191).
T1 construct: domain of the protein FimH (M1-T179) with an uncleavable C-terminus 6-His tag; made in house; host or cells: E. coli (pET21b plasmid)
T1 sequence (P08191 22-179 limits assumed): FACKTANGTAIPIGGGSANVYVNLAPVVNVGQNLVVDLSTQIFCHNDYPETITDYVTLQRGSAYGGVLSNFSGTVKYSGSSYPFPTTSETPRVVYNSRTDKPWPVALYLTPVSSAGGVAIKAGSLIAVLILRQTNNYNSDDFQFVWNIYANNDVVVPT
The test can be described thus: Thermal Shift Assay. The format is binding, E. coli. Particulars: 5.6 μM protein, 56 μM ligand; DMSO control as reference; ± standard error of the mean (number of repeats). How it is done: The carbohydrate recognition domain of the protein FimH (M1-T179) with an uncleavable C-terminus 6-His tag is cloned in a pET21b plasmid and expressed in E. coli and purified to homogeneity. The thermal stabilization of the protein upon ligand binding is measured in a 96-well format on a ViiA™ 7 (Life Technologies, Carlsbad, Calif.) RT-PCR instrument. The assay is conducted in duplicate in 20 mM Tris pH 7.4 and 150 mM NaCl at a final concentration of 5.6 μM and 56 μM for protein and ligand, respectively. An environmentally-sensitive dye (Applied Biosystems Protein Thermal Shift™ Dye (P/N 4461141)) is added to each well to a final ratio of 1:1000. Plates are spun at 1000×g for 1 minute and incubated at room temperature for 10 minutes. Thermal stability of protein with and without ligand is measured from 45° C. to 85° C. at a scan rate of 0.05° C./sec. The resulting data is analyzed using Protein Thermal Shift™ Software (version 1.1) with DMSO control used as reference.
With `Cc1cc(Br)ccc1O[C@H]1O[C@H](CO)[C@@H](O)[C@H](O)[C@@H]1F` [Example 1, (2R,3S,4S,5S,6R)-6-(4-bromo-2-methyl-phenoxy)-5-fluoro-2-(hydroxymethyl)tetrahydropyran-3,4-diol], the “Delta Thermal melt” value was 3 (1) ° C.

Turning to `OC[C@H]1O[C@H](Oc2ccc(Br)cc2C(F)(F)F)[C@@H](F)[C@@H](O)[C@@H]1O` [Example 3, (2R,3S,4S,5S,6R)-6-[4-bromo-2-(trifluoromethyl)phenoxy]-5-fluoro-2-(hydroxymethyl)tetrahydropyran-3,4-diol], the “Delta Thermal melt” value is 3.2 (1) ° C.

On to `COc1cc(Br)ccc1O[C@H]1O[C@H](CO)[C@@H](O)[C@H](O)[C@@H]1F` [Example 5, (2R,3S,4S,5S,6R)-6-(4-bromo-2-methoxy-phenoxy)-5-fluoro-2-(hydroxymethyl)tetrahydropyran-3,4-diol], for which the “Delta Thermal melt” value is given as 1.8 (1) ° C.

The values are drawn from patent US9890176B2, “Mannose derivatives for treating bacterial infections” (Vertex Pharmaceuticals Incorporated, priority 2013, dated 2018).
